# Read-outs that look alike come from different tables or passages of the source.
# How the values were obtained:
# CCRF-CEM [1] = test system: CCRF-CEM
# [2] = test system: Prostate Cancer cell lines
# T-47D = assay type: cell-based; details: Breast Cancer; for CC50: read-out: LC50 (the source's name)
# [3] = test system: panel of approximately sixty human tumor cell lines; assay: NCI-60 human tumor cell lines screen (SRB), full panel; assay type: cell-based; details: for GI50: read-out: GI50, Total MG_MID; for Positive Cytostatic Effect: ratio of number of cell lines with percent growth from 0 to 50 to total number of cell lines
# Method: Compounds 2a, 2c–f, 2h–l, 3, 5e, 5f were selected for antitumor activity which was performed according to the standard protocols of National Cancer Institute (NCI, Bethesda, MD, USA) Developmental Therapeutic Program (DTP). At the prescreening stage, the compounds were evaluated for antitumor activity at the concentration of 10 µM against a panel of approximately sixty cancer cell lines representing different types of cancer including leukemia, melanoma, lung, colon, CNS, ovarian, renal, prostate and breast cancers.
# Among them, three compounds (2d, 2h, 2i) presented excellent cytotoxic and four derivatives (2d, 2h, 2i, 2k) cytostatic properties in one or more cell lines when applied at a concentration of 10 µM. […] The outcomes were calculated and presented in the form of three response parameters (GI50, TGI and LC50) for each cell line via growth percentage inhibition curves. […]
# The primary anticancer assay was performed on a panel of approximately sixty human tumor cell lines derived from nine neoplastic diseases (leukemia, melanoma, lung, colon, CNS, ovarian, renal, prostate, and breast cancers), in accordance with the protocol of the National Cancer Institute Drug Evaluation Branch (Bethesda, MD, USA). Tested compounds were added to the culture at a single concentration (10^−5 M) and the cultures were incubated for 48 h. End-point determinations were made with a protein-binding dye, sulforhodamine B (SRB). Results for each tested compound were reported as the percentage of the growth of the treated cells when compared to the untreated control cells. The percentage of the growth was evaluated spectrophotometrically versus controls not treated with test agents. […] Using absorbance measurements [time zero (Tz), control growth in the absence of drug (C), and test growth in the presence of the drug (Ti)], the percentage growth was calculated for each drug concentration. Percentage growth inhibition was calculated as:[(Ti − Tz)/[…]] × 100(1) for concentrations for which Ti ≥ Tz, [(Ti − Tz)/Tz] × 100 for concentrations for which Ti < Tz. Dose-response parameters (GI50, TGI) were calculated for each compound. Growth inhibition of 50% (GI50) was calculated from [(Ti − Tz)/(C − Tz)] × 100 = 50, which is the drug concentration resulting in a 50% lower net protein increase in the treated cells (measured by SRB staining) as compared to the net protein increase seen in the control cells. The drug concentration resulting in total growth inhibition (TGI) was calculated from Ti = Tz. Values were calculated for each of these parameters if the level of activity was reached; however, if the effect was not reached or was excessive, the value for that parameter was expressed as more or less than the maximum or minimum concentration tested. The lowest values were obtained with the most sensitive cell lines. Compounds having GI50 values ≤ 100 μM were declared to be active. The selectivity index (SI) calculated by dividing the full panel MG_MID (full-panel mean-graph midpoint) (μM) of the compounds 2h and 2i by their individual subpanel MG_MID of a cell line (μM) was considered as a measure of compounds’ selectivity. Ratios between 3 and 6 mean moderate selectivity, ratios greater than 6 indicate high selectivity toward the corresponding cell line, while compounds not meeting either of these criteria are rated nonselective.
# CCRF-CEM [4] = test system: CCRF-CEM; remark: listed apart in the source
# IGROV1 = assay type: cell-based, human; details: IGROV1, Ovarian Cancer
# [5] = test system: panel of approximately sixty human tumor cell lines; assay: NCI-60 human tumor cell lines screen (SRB), full panel; assay type: cell-based
# [6] = test system: Ovarian Cancer cell lines
# [7] = Homo sapiens, read-out: GI50, panel MG_MID
# [8] = Homo sapiens, read-out: GI50, values range inside panel
# [9] = Homo sapiens, read-out: LC50, panel MG_MID
# [10] = Homo sapiens, read-out: LC50, values range inside panel
# [11] = 60 cell lines assay in one dose, 10 μM, 48 h
molecule,measurement,setting,value
"O=C(COc1ccc(Cl)cc1/C=c1\sc2ncnn2c1=O)Nc1ccc(Cl)cc1 [Compound 2h, (Z)-2-(4-Chloro-2-((6-oxothiazolo[3,2-b][1,2,4]triazol-5(6H)-ylidene)methyl)phenoxy)-N-(4-chlorophenyl)acetamide]",GI50,EKVX; Homo sapiens,2.51 µM
same,CC50,"EKVX; Homo sapiens, read-out: LC50",31.6 µM
same,TGI,EKVX; NSCLC,9.99 µM
same,GI50,"OVCAR-8; Homo sapiens, OVCAR-8",3.16 µM
same,CC50,"OVCAR-8; Homo sapiens, OVCAR-8, read-out: LC50",41.7 µM
same,TGI,"OVCAR-8; OVCAR-8, Ovarian Cancer",12.88 µM
same,GI50,CCRF-CEM [1]; Homo sapiens,1.35 µM
same,CC50,"CCRF-CEM [1]; Homo sapiens, read-out: LC50",7.58 µM
same,TGI,CCRF-CEM [1]; Leukemia,3.16 µM
same,GI50,[2]; [7],2.67 µM
same,GI50,[2]; [8],1.54 to 3.8 µM
same,CC50,[2]; [9],30.8 µM
same,CC50,[2]; [10],15.8 to 45.7 µM
same,"TGI, panel MG_MID",[2]; Prostate Cancer subpanel,10.34 µM
same,"TGI, values range inside panel",[2]; Prostate Cancer subpanel,4.46 to 16.21 µM
same,TGI,T-47D,25.70 µM
same,GI50,"T-47D; Homo sapiens, T47D",7.76 µM
same,CC50,"T-47D; Homo sapiens, T47D",28.8 µM
same,activity at 10 µM,"[3]; Homo sapiens, 60 cell lines assay in one dose, 10 μM, 48 h, read-out: Mean Growth, %",29%
same,activity at 10 µM,"[3]; Homo sapiens, 60 cell lines assay in one dose, 10 μM, 48 h, read-out: Range of Growth, %",-48 to 122%
same,GI50,"[3]; Homo sapiens, full panel average",3.54 µM
same,CC50,"[3]; Homo sapiens, full panel average, read-out: LC50, Total MG_MID",37.1 µM
same,"TGI, Total MG_MID",[3]; full panel average,12.88 µM
same,Positive Cytostatic Effect,"[3]; one dose, 10 μM",30/57
same,Positive Cytotoxic Effect,"[3]; one dose, 10 μM, ratio of number of cell lines with percent growth of <0 to total number of cell lines",12/57
same,GI50,"KM12; Homo sapiens, KM12",2.45 µM
same,CC50,"KM12; Homo sapiens, KM12, read-out: LC50",33.1 µM
same,TGI,"KM12; KM12, Colon cancer",10.96 µM
same,GI50,Leukemia cell lines; [7],1.92 µM
same,GI50,Leukemia cell lines; [8],1.35 to 2.69 µM
same,CC50,Leukemia cell lines; [9],26.8 µM
same,CC50,Leukemia cell lines; [10],7.58 to 49 µM
same,"TGI, panel MG_MID",Leukemia cell lines; Leukemia subpanel,6.85 µM
same,"TGI, values range inside panel",Leukemia cell lines; Leukemia subpanel,3.16 to 14.45 µM
same,GI50,"SF-268; Homo sapiens, SF-268",2.39 µM
same,CC50,"SF-268; Homo sapiens, SF-268, read-out: LC50",37.1 µM
same,TGI,"SF-268; SF-268, CNS Cancer",10.47 µM
same,GI50,"NCI-H460; Homo sapiens, NCI-H460",11.5 µM
same,CC50,"NCI-H460; Homo sapiens, NCI-H460, read-out: LC50",49 µM
same,TGI,"NCI-H460; NCI-H460, NSCLC",23.44 µM
same,"TGI, panel MG_MID",Colon cancer cell lines; Colon cancer subpanel,17.39 µM
same,"TGI, values range inside panel",Colon cancer cell lines; Colon cancer subpanel,10.96 to 21.37 µM
same,GI50,Colon cancer cell lines; [7],6.13 µM
same,GI50,Colon cancer cell lines; [8],2.45 to 9.33 µM
same,CC50,Colon cancer cell lines; [9],41.4 µM
same,CC50,Colon cancer cell lines; [10],33.1 to 45.7 µM
same,GI50,"K-562; Homo sapiens, K562",2.51 µM
same,CC50,"K-562; Homo sapiens, K562, read-out: LC50",49 µM
same,TGI,"K-562; K-562, Leukemia",14.45 µM
"Ethyl(Z)-4-(3-(4-chloro-2-((6-oxothiazolo[3,2-b][1,2,4]triazol-5(6H)-ylidene)methyl)phenyl)propanamido)benzoate [Compound 2i]",CC50,UACC-257,63.1 µM
same,CC50,CCRF-CEM [4],> 100 µM
same,GI50,EKVX; NSCLC,12.9 µM
same,TGI,EKVX; NSCLC,25.70 µM
same,GI50,"OVCAR-8; OVCAR-8, Ovarian Cancer",13.5 µM
same,TGI,"OVCAR-8; OVCAR-8, Ovarian Cancer",33.88 µM
same,GI50,CCRF-CEM [1]; Leukemia,2.88 µM
same,TGI,CCRF-CEM [1]; Leukemia,9.99 µM
same,CC50,LOX IMVI,42.6 µM
same,CC50,HS 578T,60.2 µM
same,"TGI, panel MG_MID",[2]; Prostate Cancer subpanel,27.11 µM
same,"TGI, values range inside panel",[2]; Prostate Cancer subpanel,16.21 to 38.01 µM
same,GI50,"[2]; read-out: GI50, panel MG_MID, Prostate Cancer subpanel",7.6 µM
same,GI50,"[2]; read-out: GI50, values range inside panel, Prostate Cancer subpanel",3.98 to 11.2 µM
same,GI50,T-47D,11 µM
same,TGI,T-47D,38.01 µM
same,CC50,T-47D,41.7 µM
same,"Mean Growth, %",[3]; [11],61.05%
same,"Range of Growth, %",[3]; [11],−22.54 to 122.94%
same,"TGI, Total MG_MID",[3]; full panel average,28.18 µM
same,GI50,[3]; full panel average,11 µM
same,Positive Cytostatic Effect,"[3]; one dose, 10 μM",17/58
same,GI50,"KM12; KM12, Colon cancer",10.2 µM
same,TGI,"KM12; KM12, Colon cancer",23.98 µM
same,CC50,HCC-2998,66.1 µM
same,CC50,HOP-92,83.2 µM
same,"TGI, panel MG_MID",Leukemia cell lines; Leukemia subpanel,51.55 µM
same,GI50,"Leukemia cell lines; read-out: GI50, panel MG_MID, Leukemia subpanel",11.3 µM
same,GI50,"Leukemia cell lines; read-out: GI50, values range inside panel, Leukemia subpanel",2.88 to 18.2 µM
same,GI50,IGROV1,6.6 µM
same,TGI,IGROV1,20.89 µM
same,CC50,[5],63.1 µM
same,GI50,"SF-268; SF-268, CNS Cancer",6.02 µM
same,TGI,"SF-268; SF-268, CNS Cancer",28.84 µM
same,CC50,[6],68.7 µM
same,GI50,"NCI-H460; NCI-H460, NSCLC",13.5 µM
same,TGI,"NCI-H460; NCI-H460, NSCLC",27.54 µM
same,CC50,HCT-15,55 µM
same,"TGI, panel MG_MID",Colon cancer cell lines; Colon cancer subpanel,26.51 µM
same,"TGI, values range inside panel",Colon cancer cell lines; Colon cancer subpanel,21.37 to 33.11 µM
same,GI50,"Colon cancer cell lines; read-out: GI50, panel MG_MID, Colon cancer subpanel",12.4 µM
same,GI50,"Colon cancer cell lines; read-out: GI50, values range inside panel, Colon cancer subpanel",9.55 to 16.6 µM
same,GI50,"K-562; K-562, Leukemia",18.2 µM
same,TGI,"K-562; K-562, Leukemia",> 100 µM

# Source: PMC7926352, “Synthesis, Characterization and In Vitro Evaluation of Novel 5-Ene-thiazolo[3,2-b][1,2,4]triazole-6(5H)-ones as Possible Anticancer Agents” (Molecules, 2021)
